# Active and inactive are the calls of the source.
# Key:
# [1] = Luminescence Cell-Based Dose Response to Identify Activators of 5'UTR Stem-Loop Driven Prion Protein mRNA Translation in H4-C Neuroglioblastoma Cells. [Related pubchem assays: 1829 (Project Summary), 1814 (Primary HTS)]; assay type: functional
# [2] = Luminescence Cell-Based Dose Confirmation HTS to Identify Activators of 5'UTR Stem-Loop Driven Alpha-Synuclein mRNA Translation in H4 Neuroglioblastoma Cells. [Related pubchem assays: 1829 (Project Summary), 1814 (Primary HTS)]; assay type: functional
# [3] = Luminescence Cell-Based Dose Response HTS to Identify Activators of Luciferase Translation or Activity in H4 […] Cells. [Related pubchem assays: 1829 (Project Summary), 1814 (Primary HTS)]; assay type: functional
# H4 = experiment: Luminescence Cell-Based Dose Response HTS to Identify Activators of 5'UTR Stem-Loop Driven Prion Protein mRNA Translation in H4 Neuroglioblastoma Cells. [Related pubchem assays: 1829 (Project Summary), 1814 (Primary HTS)]; assay type: functional; conditions: Homo sapiens
# [4] = Luminescence Cell-Based Dose Response to Identify Activators of Luciferase Translation or Activity in H4-C Neuroglioblastoma Cells. [Related pubchem assays: 1829 (Project Summary), 1814 (Primary HTS)]; assay type: functional
# [5] = Luminescence Cell-Based Dose Confirmation to Identify Activators of 5'UTR Stem-Loop Driven Alpha-Synuclein mRNA Translation in H4 Neuroglioblastoma Cells. [Related pubchem assays: 1829 (Project Summary), 1814 (Primary HTS)]; assay type: functional
# [6] = Luminescence-based dose response cell-based high throughput screening assay for cytotoxic compounds using the IEC-6 intestinal epithelial cell line. [Related pubchem assays: 1858 (Summary AID.), 1825 (Counterscreen.), 1907 (Confirmation screen.)]; assay type: functional
# [7] = cytotoxicity in HEK-293T cells, dose response, cytotoxicity control for BCR NF-kB inhibitor project, luminescence, B-cell screen hits (AID 489021); assay type: functional, cell-based;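 further: HEK-293T cells carrying an NF-kB luciferase reporter; cells exposed to compound for about 14 hours before viability readout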
# [8] = target: Heat shock protein HSP 90-alpha (Homo sapiens, UniProt P07900); experiment: Luminescence-based dose response biochemical high throughput screening assay for inhibitors of the Heat Shock Protein 90 (HSP90). [Related pubchem assays: 1831 (Summary AID.), 1846 (Confirmation screen.), 1789 (Primary screen.)]
# Estrogen receptor beta = Estrogen receptor beta (Homo sapiens, UniProt Q92731);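 further: recombinant ER-beta bound to coactivator SRC1 peptide in presence of estradiol agonist; inhibitors block coactivator peptide binding and lower the FRET signal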
# Estrogen receptor beta, sequence (Q92731 whole entry): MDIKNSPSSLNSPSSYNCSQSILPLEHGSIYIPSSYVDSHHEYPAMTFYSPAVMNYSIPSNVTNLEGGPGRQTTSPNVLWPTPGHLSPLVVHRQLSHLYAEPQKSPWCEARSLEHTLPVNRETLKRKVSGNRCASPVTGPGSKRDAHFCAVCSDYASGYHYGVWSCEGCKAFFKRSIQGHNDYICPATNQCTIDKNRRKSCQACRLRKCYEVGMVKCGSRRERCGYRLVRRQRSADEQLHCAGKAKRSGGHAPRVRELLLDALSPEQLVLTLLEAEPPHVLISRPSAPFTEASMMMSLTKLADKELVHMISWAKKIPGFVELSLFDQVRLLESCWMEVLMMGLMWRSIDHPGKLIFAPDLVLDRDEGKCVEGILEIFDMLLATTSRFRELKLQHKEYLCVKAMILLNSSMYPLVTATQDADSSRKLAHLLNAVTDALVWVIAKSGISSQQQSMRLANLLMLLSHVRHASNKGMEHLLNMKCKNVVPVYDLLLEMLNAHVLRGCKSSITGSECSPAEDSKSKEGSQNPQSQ
# Large T antigen = Large T antigen (Simian virus 40, UniProt P03070); assay type: functional, Betapolyomavirus macacae;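 further: Confirmatory-stage PubChem screen for compounds that inhibit SV40 T antigen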
# Large T antigen, sequence (P03070 whole entry): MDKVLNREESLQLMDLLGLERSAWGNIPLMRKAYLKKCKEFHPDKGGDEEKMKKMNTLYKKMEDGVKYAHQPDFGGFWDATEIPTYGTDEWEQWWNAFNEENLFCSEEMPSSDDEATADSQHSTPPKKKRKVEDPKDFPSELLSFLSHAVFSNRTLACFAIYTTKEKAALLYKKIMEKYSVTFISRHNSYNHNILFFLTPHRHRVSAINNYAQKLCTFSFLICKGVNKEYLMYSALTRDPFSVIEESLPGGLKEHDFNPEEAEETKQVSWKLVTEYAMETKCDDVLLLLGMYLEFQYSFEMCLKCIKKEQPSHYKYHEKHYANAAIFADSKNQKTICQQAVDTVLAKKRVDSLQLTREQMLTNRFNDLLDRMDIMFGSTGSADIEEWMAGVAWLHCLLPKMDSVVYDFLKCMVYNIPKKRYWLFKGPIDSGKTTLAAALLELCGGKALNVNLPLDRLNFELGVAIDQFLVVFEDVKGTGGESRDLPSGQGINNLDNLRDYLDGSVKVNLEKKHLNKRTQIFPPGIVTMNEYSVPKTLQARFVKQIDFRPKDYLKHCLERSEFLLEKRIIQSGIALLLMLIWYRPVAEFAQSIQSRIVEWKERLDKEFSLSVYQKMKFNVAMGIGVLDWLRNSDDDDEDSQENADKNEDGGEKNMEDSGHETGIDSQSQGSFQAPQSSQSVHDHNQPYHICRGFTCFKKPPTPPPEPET
# Hexokinase HKDC1 = target: T1, Hexokinase HKDC1 (Homo sapiens, UniProt Q2TB90); experiment: HKDC1 hexokinase inhibitors, dose response, biochemical, W721R variant (AID 504729); assay type: functional
# T1 sequence (Q2TB90 whole entry): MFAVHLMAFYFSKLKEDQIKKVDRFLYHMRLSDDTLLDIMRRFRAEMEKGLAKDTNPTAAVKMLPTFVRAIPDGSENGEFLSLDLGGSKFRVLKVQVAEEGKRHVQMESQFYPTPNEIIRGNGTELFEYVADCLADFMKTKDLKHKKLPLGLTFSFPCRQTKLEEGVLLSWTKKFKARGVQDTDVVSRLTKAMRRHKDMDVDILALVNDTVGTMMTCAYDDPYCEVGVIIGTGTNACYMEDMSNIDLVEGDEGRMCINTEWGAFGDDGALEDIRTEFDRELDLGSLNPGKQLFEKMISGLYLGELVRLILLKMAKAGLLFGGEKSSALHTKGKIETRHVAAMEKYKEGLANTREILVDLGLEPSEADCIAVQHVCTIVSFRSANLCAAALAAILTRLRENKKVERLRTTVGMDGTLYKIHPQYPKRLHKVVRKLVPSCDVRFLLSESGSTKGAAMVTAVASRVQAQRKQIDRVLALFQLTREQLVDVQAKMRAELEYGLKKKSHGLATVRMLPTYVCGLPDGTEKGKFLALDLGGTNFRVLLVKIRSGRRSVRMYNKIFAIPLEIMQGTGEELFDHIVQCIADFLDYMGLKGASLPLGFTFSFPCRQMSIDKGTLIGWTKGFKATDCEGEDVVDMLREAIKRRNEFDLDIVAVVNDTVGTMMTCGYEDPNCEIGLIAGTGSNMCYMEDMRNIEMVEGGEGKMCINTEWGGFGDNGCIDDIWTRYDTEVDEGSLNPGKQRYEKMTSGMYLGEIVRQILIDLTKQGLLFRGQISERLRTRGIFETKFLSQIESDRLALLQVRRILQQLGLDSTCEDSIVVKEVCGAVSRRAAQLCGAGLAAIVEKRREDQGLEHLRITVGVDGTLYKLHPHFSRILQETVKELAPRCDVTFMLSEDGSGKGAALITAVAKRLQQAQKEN
# Vero = Vero cell cytotoxicity, cytotoxicity control for flavivirus capping enzyme inhibitors (AID 588742); assay type: functional; conditions: Chlorocebus sabaeus
# Genome polyprotein = Genome polyprotein (dengue virus type 2, UniProt P29990); experiment: Dengue-2 NS5 methyltransferase inhibitors, primary screen, biochemical, confirmation dose response (AID 588689); assay type: functional
# Genome polyprotein, sequence (P29990 2492-3391 limits assumed): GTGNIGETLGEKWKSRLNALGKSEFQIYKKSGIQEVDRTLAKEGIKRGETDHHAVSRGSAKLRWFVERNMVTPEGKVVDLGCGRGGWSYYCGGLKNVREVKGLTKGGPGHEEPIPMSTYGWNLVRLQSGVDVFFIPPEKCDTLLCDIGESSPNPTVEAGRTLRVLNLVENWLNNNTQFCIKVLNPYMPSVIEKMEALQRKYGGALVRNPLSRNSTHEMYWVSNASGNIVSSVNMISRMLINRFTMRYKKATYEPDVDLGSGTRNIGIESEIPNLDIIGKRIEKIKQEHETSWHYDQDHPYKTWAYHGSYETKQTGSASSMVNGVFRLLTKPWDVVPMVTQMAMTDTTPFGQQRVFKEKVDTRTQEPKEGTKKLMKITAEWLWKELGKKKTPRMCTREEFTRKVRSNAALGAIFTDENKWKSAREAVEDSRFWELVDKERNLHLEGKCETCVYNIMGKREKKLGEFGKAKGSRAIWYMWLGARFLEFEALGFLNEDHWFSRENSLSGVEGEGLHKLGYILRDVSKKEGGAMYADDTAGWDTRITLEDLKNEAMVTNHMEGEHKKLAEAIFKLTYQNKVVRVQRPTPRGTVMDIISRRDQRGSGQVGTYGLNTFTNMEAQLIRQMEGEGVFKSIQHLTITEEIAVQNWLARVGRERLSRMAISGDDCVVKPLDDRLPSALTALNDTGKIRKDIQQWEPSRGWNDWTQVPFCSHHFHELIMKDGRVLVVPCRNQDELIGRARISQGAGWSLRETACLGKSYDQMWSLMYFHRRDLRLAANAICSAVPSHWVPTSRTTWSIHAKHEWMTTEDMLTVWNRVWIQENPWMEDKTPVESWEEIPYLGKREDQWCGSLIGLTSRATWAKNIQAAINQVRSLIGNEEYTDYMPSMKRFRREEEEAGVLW
# [9] = target: T2, Tyrosyl-DNA phosphodiesterase 2 (Homo sapiens, UniProt O95551); experiment: human TDP2 enzyme inhibitors, dose response, biochemical, epi absorbance, IC50 (AID 743297)
# T2 sequence (O95551 whole entry): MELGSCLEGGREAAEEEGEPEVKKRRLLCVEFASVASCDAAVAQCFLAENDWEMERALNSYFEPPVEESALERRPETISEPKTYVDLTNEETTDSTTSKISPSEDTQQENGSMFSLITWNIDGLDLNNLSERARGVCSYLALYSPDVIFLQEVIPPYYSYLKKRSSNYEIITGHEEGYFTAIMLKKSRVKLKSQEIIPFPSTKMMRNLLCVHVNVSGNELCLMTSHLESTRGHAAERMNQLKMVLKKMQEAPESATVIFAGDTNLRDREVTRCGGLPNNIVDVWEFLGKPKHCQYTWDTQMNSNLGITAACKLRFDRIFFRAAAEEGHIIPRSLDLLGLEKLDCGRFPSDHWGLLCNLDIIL
# [10] = Vero cell cytotoxicity, dose response, cytotoxicity control for Vif-APOBEC3G degradation inhibitor project, Vero cells (AID 1117358); assay type: functional; conditions: Human immunodeficiency virus 1, Vero
# [11] = Luminescent dose response cell-based high throughput screening assay for inhibitors of the Janus kinase 2 mutant JAK2V617F. [Related pubchem assays: 1446 (Primary screen.), 1521 (Confirmation assay.), 1486 (Counter screen.)]; assay type: functional
# Protein Tat = target: T3, Protein Tat (Human immunodeficiency virus type 1 group M subtype B (isolate HXB2)(HIV-1), UniProt P04608); assay type: functional;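 further: tat binding to TAR RNA read out by fluorescence polarization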
# T3 sequence (P04608 whole entry): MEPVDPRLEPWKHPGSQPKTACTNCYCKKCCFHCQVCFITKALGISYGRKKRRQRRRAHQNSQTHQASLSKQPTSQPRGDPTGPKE
# Paired box protein Pax-8 = Paired box protein Pax-8 (Homo sapiens, UniProt Q06710); experiment: inhibitors of PAX8-driven TPO luciferase reporter, dose response, RMG-I cells, cherry-pick (AID 687027); assay type: functional, cell-based;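 further: luciferase reporter driven by Pax8 target thyroperoxidase promoter measured by SteadyGlo luminescence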
# Paired box protein Pax-8, sequence (Q06710 whole entry): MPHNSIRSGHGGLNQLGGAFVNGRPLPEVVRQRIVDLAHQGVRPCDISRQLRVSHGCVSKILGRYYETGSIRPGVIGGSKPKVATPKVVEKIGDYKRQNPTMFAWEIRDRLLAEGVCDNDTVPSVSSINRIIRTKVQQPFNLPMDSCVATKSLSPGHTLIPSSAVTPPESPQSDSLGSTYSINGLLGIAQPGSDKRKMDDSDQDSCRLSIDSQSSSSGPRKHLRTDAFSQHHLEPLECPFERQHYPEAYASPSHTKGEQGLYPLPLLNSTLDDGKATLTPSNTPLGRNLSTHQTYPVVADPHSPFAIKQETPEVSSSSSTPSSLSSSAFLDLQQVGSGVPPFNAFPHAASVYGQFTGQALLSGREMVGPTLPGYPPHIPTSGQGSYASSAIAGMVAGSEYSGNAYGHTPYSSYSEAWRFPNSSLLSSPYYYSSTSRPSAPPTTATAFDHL
# [12] = IOSE-T80 ovarian epithelial cell cytotoxicity, dose response, cytotoxicity control for PAX8 inhibitor project, plate reader, dry powder samples (AID 743045); assay type: functional, cell-based
# [13] = inhibitors of PGC1a acetylation in cells, dose response, cell-based, cherry-picked samples (AID 720514); assay type: functional;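 further: potency may reflect raised or lowered acetylation signal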
# [14] = NIH:OVCAR-3 ovarian cancer cell cytotoxicity, dose response, PAX8 inhibitor project, plate reader, dry powder samples (AID 743044); assay type: functional, cell-based
# [15] = IGROV1 ovarian cancer cell cytotoxicity, dose response, PAX8 inhibitor project, plate reader, dry powder samples (AID 743043); assay type: functional, cell-based; conditions: IGROV-1
# [16] = cytotoxicity in OVCAR8 ovarian cancer cells, dose response, PAX8 project, cell-based, plate reader, dry powder samples (AID 743197); assay type: functional; conditions: OVCAR-8
compound,measurement,setting,value
COc1ccc(C(=O)Nc2cnc3ccccn3c2=O)cc1,EC50,[1],0.755 µM (active)
same,EC50,[2],0.129 µM (active)
same,EC50,[3],< 0.1 µM (active)
same,EC50,H4,38.8 µM (active)
same,EC50,[4],0.53 µM (active)
same,EC50,[5],0.36 µM (active)
Cc1ccc(Nc2nc(N3CCOCC3)nc(N3CCOCC3)n2)cc1C,IC50,[6],1.47 µM (active)
same,IC50,[7],> 80 µM (inactive)
COC(=O)c1ccccc1OCCCOc1ccc(C)cc1OC,IC50,[8],0.00405 µM (active)
Cc1occc1C(=O)NCCCc1ccccc1,IC50,Estrogen receptor beta,> 50 µM (not active)
Cc1cccc(-n2c3nc(=O)[nH]c(=O)c-3cc3cc([N+](=O)[O-])ccc32)c1,IC50,Large T antigen,> 100 µM (active)
same,IC50,Hexokinase HKDC1,10.4 µM (active)
same,CC50,Vero,24.8 µM (active)
same,IC50,Genome polyprotein,32.7 µM (active)
same,IC50,[9],> 128 µM (inactive)
CC(C)c1ccc(/C=C/C(=O)N2CCc3ccccc3C2)cc1,CC50,[10],> 40 µM (active)
Cc1nn(Cc2ccccc2)c(Cl)c1C(=O)NCCc1ccccc1,EC50,[1],1.07 µM (active)
same,EC50,[2],< 0.1 µM (active)
same,EC50,[3],< 0.1 µM (active)
same,EC50,[4],0.367 µM (active)
same,EC50,[5],0.24 µM (active)
Cc1ccc[n+](-c2[n-]c(=O)sc2C=NNC(=O)c2ccccc2O)c1,CC50,[10],> 40 µM (active)
CC(C)(C)c1ccc(C(=O)CSc2nc[nH]n2)cc1,EC50,[1],1.13 µM (active)
same,EC50,[2],3.34 µM (active)
same,EC50,[3],88.1 µM (active)
same,EC50,H4,0.127 µM (active)
same,EC50,[4],1.09 µM (active)
same,EC50,[5],0.58 µM (active)
O=S(=O)(c1cccs1)N1CCN(c2ccc(O)cc2)CC1,IC50,[11],2.84 µM (active)
same,IC50,Large T antigen,6.66 µM (active)
COc1ccc(OC)c(C2C(C(=O)Nc3ccc(F)cc3)=C(C)Nc3nc(CCCO)nn32)c1 (stereo not given),IC50,Protein Tat,> 100 µM (active)
C#CCSc1nsc(SCC#C)c1C#N,IC50,[11],1.1 µM (active)
Cc1noc(C)c1COC(=O)c1cccc(S(=O)(=O)N2CCCCCC2)c1,CC50,[10],> 40 µM (active)
O=C(Nc1ccc(C(F)(F)F)cc1)N1C[C@@H]2N[C@H](C1)[C@H]2c1ccc(-c2ccccc2)cc1,AC50,Paired box protein Pax-8,8.55 µM (active)
same,AC50,[12],49.8 µM (active)
same,AC50,[13],5.12 µM (active)
same,AC50,[14],17.7 µM (active)
same,AC50,[15],27.2 µM (active)
same,AC50,[16],41 µM (active)
C[C@@H]1CCCCO[C@H](CN(C)C(=O)NC2CCCCC2)[C@@H](C)CN([C@@H](C)CO)C(=O)c2cc(NC(=O)NC3CCCCC3)ccc2O1,AC50,[13],26 µM (active)
